From PubChem BioAssay (NCI)
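Step 1: Grow cells in 96-well plates. Step 2: Expose to compound for 48 hours at 5 concentrations. Step 3: Interpolate endpoints linearly; if unreached, use highest concentration. GI50 marks 50% less growth. The concentration for full growth arrest is given as TGI.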

What was measured:
Experiment in all cases: growth of human tumour cells (NCI), 48 h
[1] = system: OVCAR-3 ovarian
[2] = system: HCT-116 colon
[3] = system: ACHN renal
[4] = system: M14 melanoma
[5] = system: HL-60(TB) leukemia
[6] = system: LOX IMVI melanoma
[7] = system: K-562 leukemia
[8] = system: RPMI-8226 leukemia
[9] = system: SW-620 colon
[10] = system: EKVX NSCLC

## OCc1ccc(N2CCC2c2ccc(F)cc2)cc1Cl (stereo unspecified)
[1]
  GI50: 2.34 µM
  TGI: 13.8 µM
[2]
  GI50: 0.481 µM
  TGI: > 38.2 µM
[3]
  GI50: 30.8 µM
  TGI: > 100 µM
[4]
  GI50: 32.7 µM
  TGI: > 79.4 µM
[5]
  GI50: 18.5 µM
  TGI: 51.8 µM
[6]
  GI50: 22.5 µM
  TGI: 51.1 µM
[7]
  GI50: 6.66 µM
  TGI: 58.6 µM
[8]
  GI50: 6.56 µM
  TGI: 31.6 µM
[9]
  GI50: 4.93 µM
  TGI: > 100 µM

## CO[C@H](C(=O)[C@@H](O)[C@@H](C)O)[C@@H]1Cc2cc3cc(O[C@H]4C[C@@H](O[C@H]5C[C@@H](O)[C@H](O)C(C)O5)[C@H](O)C(C)O4)c(C)c(O)c3c(O)c2C(=O)[C@H]1O[C@H]1C[C@@H](O[C@H]2C[C@@H](O[C@H]3C[C@](C)(O)C(=O)C(C)O3)[C@@H](O)C(C)O2)[C@H](O)C(C)O1 (stereo partly specified)
[1]
  GI50: 0.0907 µM
  TGI: 3.54 µM
[2]
  GI50: 0.0444 µM
  TGI: > 15.7 µM
[3]
  GI50: 0.154 µM
  TGI: 1.55 µM
[4]
  GI50: 0.12 µM
  TGI: 0.817 µM
[5]
  GI50: 0.592 µM
  TGI: > 21 µM
[10]
  GI50: 0.168 µM
  TGI: > 12.3 µM
[7]
  GI50: 0.1 µM
  TGI: > 33.2 µM
[8]
  GI50: 0.1 µM
  TGI: 1.61 µM
[9]
  GI50: 0.075 µM
  TGI: > 33.2 µM

## Cc1cc(C)nc(NS(=O)(=O)c2ccc(NC(=O)c3ccc(Cl)c4c(Nc5ccc(S(=O)(=O)Nc6nc(C)cc(C)n6)cc5)c5ccccc5nc34)cc2)n1
[1]
  TGI: > 100 µM
[3]
  TGI: > 100 µM
[4]
  TGI: 6.95 µM
[5]
  TGI: 11 µM
[10]
  TGI: 88.8 µM
[6]
  TGI: > 100 µM
[7]
  TGI: 99 µM
[8]
  TGI: > 100 µM
[9]
  TGI: > 100 µM

## O=CC[C@H]1C(=O)C[C@@H]2CCC[C@@H]21
[1]
  TGI: > 100 µM
[2]
  TGI: > 100 µM
[3]
  TGI: > 100 µM
[4]
  TGI: > 100 µM
[5]
  TGI: > 100 µM
[10]
  TGI: > 100 µM
[7]
  TGI: > 100 µM
[8]
  TGI: > 100 µM
[9]
  TGI: > 100 µM

## COc1ccc2c3c1C(=O)CCCC3CO2 (stereo unspecified)
[1]
  TGI: > 100 µM
[3]
  TGI: > 100 µM
[4]
  TGI: > 100 µM
[5]
  TGI: > 100 µM
[6]
  TGI: > 100 µM
[7]
  TGI: > 100 µM
[8]
  TGI: > 100 µM
[9]
  TGI: > 100 µM

## CCN(CCO)CC1CCCC2CCCCC21 (stereo unspecified)
[1]
  TGI: > 100 µM
[2]
  TGI: > 100 µM
[3]
  TGI: > 100 µM
[4]
  TGI: > 100 µM
[10]
  TGI: > 100 µM
[7]
  TGI: > 100 µM
[8]
  TGI: > 100 µM
[9]
  TGI: > 100 µM

## O=C(O)c1ccccc1[Se][Se]c1ccccc1C(=O)O
[1]
  TGI: > 100 µM
[2]
  TGI: > 100 µM
[3]
  TGI: > 100 µM
[4]
  TGI: > 100 µM
[5]
  TGI: > 100 µM
[6]
  TGI: 76.1 µM
[7]
  TGI: > 100 µM
[8]
  TGI: > 100 µM
[9]
  TGI: > 100 µM

## COc1ccc(-c2nc3sccn3c2/C(N)=N/C(=N)N)cc1OC
[1]
  GI50: 31.8 µM
  TGI: > 100 µM
[2]
  GI50: 19.1 µM
  TGI: 45.2 µM
[3]
  GI50: > 100 µM
  TGI: > 100 µM
[4]
  GI50: 29.4 µM
  TGI: 79.5 µM
[10]
  GI50: 66.4 µM
  TGI: > 100 µM
[6]
  GI50: 37.5 µM
  TGI: > 100 µM
[7]
  GI50: 27.6 µM
  TGI: > 100 µM
[8]
  GI50: 58.5 µM
  TGI: > 100 µM
[9]
  GI50: 28.4 µM
  TGI: 72.1 µM

## O=S1(=O)c2ccccc2NC(c2ccc3ccccc3c2)CC1c1ccccc1F (stereo unspecified)
[1]
  TGI: > 100 µM
[3]
  TGI: > 100 µM
[4]
  TGI: > 100 µM
[5]
  TGI: > 100 µM
[10]
  TGI: > 100 µM
[6]
  TGI: > 100 µM
[7]
  TGI: > 100 µM
[8]
  TGI: > 100 µM
[9]
  TGI: > 100 µM
